Source: paper PMC10381309 (Journal of Fungi, 2023)
Values after ≈ are worked out from the molar mass of the structure shown. Read-outs that look alike come from different tables or passages of the source.

Columns and labels:
[1] = system: Fonsecaea pedrosoi (CFP 00791); experiment: NIH Clinical Collection screening for antifungal activity (growth inhibition, OD 530 nm); assay type: cell-based; settings: 10 µM, CFP00791 Fonsecaea pedrosoi isolate, 72–96 h; for inhibition at 10 µM: read-out: % Growth Inhibition
Protocol: These substances are part of the NIH Roadmap Molecular Libraries Screening Centers Network screening library, a collection of chemically diverse substances in Phase I-III clinical trials. Each substance was initially diluted to 1 mM in DMSO and stored at −20 °C until use. […] The final DMSO concentration corresponded to 0.5% v/v. The inoculum was prepared according to the protocol for filamentous fungi proposed by the European Committee on Antimicrobial Susceptibility Testing—EUCAST, with minor modifications. […] After growth, conidia were suspended in 3 mL of sterile distilled water with 0.1% Tween 20, vortexed, and the concentration adjusted to the 0.5 McFarland scale. The suspension was then diluted 1:10 in order to obtain a final working inoculum at 2–5 × 10^5 CFU/mL. Next, 100 µL of the inoculum was added to each well and the plates incubated at 35 °C for 72–96 h. Negative and positive controls consisted of culture medium alone and drug-free culture medium with the fungal inoculum previously described, respectively. Plates were read using a microplate reader (Epoch, Biotek, Wenusky, VT, USA) with a 530 nm filter to obtain the optical density. All plates were also visually read to confirm the equipment data. A calculation was performed to obtain the percentage of inhibition of fungal growth, according to the formula: (1 − (OD1/OD2)) × 100, where OD1 = optical density of the fungus in the presence of the drug; and OD2 = optical density of the growth control drug-free well.

[2] = system: Cladophialophora carrionii (CFP 00910); settings: C. carrionii; PDA; 7 days, 37 °C; albendazole at ½ MIC
Protocol: (§3) At the end of the seven days of incubation at 37 °C, the plates were read visually. The aspect of the colonies supplemented with albendazole were compared to those of the positive melanin and inhibition melanin controls, to determine whether the color of the albendazole-supplemented cultures resembled the positive DHN-melanin or the melanin inhibition control. Pictures of the colonies were captured using a Canon EOS Rebel T7+ digital camera.

[3] = system: Fonsecaea pedrosoi (CFP 00791); settings: F. pedrosoi; PDA; 7 days, 37 °C; albendazole at ½ MIC
Protocol: as §3

[4] = system: Exophiala heteromorpha (ATCC 28180); settings: E. heteromorpha; PDA; 7 days, 37 °C; albendazole at ½ MIC
Protocol: as §3

[5] = system: different species that cause CBM; experiment: MIC determination of hit drugs, stated over the panel of CBM agents; assay type: cell-based
Text: In this study, eight fungal isolates obtained from the Fiocruz Pathogenic Fungi Collection (CFP) and the American Type Culture Collection (ATCC®) were used. Fonsecaea pedrosoi (CFP 00791) was used throughout the study. This species is one of the main CBM agents worldwide. Cladophialophora carrionii (CFP 00910), Phialophora verrucosa (CFP 00937), Fonsecaea monophora (CFP 00911), Fonsecaea nubica (CFP 00912), Rhinocladiela similis (CFP 00790), Exophiala heteromorpha (ATCC® 28180), and Exophiala dermatitidis (ATCC® 28869) were used to determine the minimum inhibitory concentration (MIC) and in synergism assays. Strains were maintained on potato dextrose agar (PDA) (Sigma Chemical Corporation, St. Louis, MO, USA). Seven-day cultures incubated at 30 °C were used in the assays.
(§1) Minimum inhibitory concentrations (MICs) were determined using the method proposed by the European Committee on Antimicrobial Susceptibility Testing (EUCAST), with minor modifications. Hit drugs were serially diluted (80 μM to 0.15625 μM) in RPMI 1640 (twice concentrated, pH 7; supplemented with 2% glucose) buffered with MOPS in 96-well plates. The inoculums of all strains were prepared following the EUCAST protocol. Plates were incubated at 35 °C for 72–96 h. The MIC of the NCC substances was determined as the lowest concentration capable of inhibiting 100% of fungal growth when compared to the growth control well. MIC values were determined in duplicate.

[6] = system: Fonsecaea nubica (CFP 00912); experiment: MIC determination (EUCAST, minor modifications); assay type: cell-based; settings: F. nubica; for MIC: 100% growth inhibition, read-out: MIC
Protocol: as §1

[7] = system: Rhinocladiela similis (CFP 00790); experiment: Minimum fungicidal concentration determination; assay type: cell-based; settings: R. similis
Protocol: (§2) Minimum fungicidal concentration (MFC) was determined in triplicate by transferring a 5 μL aliquot from each well without fungal growth of the microdilution plates used for MIC determination, as described above, onto 2% glucose Sabouraud agar (Sigma Chemical Corporation). The MFC was determined as the lowest drug concentration without fungal growth on Sabouraud agar after five days of incubation at 35 °C. When the MFC/MIC ratio of a hit drug was 1 or 2, the substance was considered fungicidal against the pathogen. If this ratio was greater than 2, the hit drug was considered to be fungistatic.

[8] = system: Fonsecaea nubica (CFP 00912); experiment: Minimum fungicidal concentration determination; assay type: cell-based; settings: F. nubica
Protocol: as §2

[9] = system: Phialophora verrucosa (CFP 00937); experiment: Minimum fungicidal concentration determination; assay type: cell-based; settings: P. verrucosa
Protocol: as §2

[10] = system: Exophiala dermatitidis (ATCC 28869); experiment: Minimum fungicidal concentration determination; assay type: cell-based; settings: E. dermatitidis
Protocol: as §2

[11] = system: Exophiala heteromorpha (ATCC 28180); experiment: Minimum fungicidal concentration determination; assay type: cell-based; settings: E. heteromorpha
Protocol: as §2

[12] = system: Fonsecaea pedrosoi (CFP 00791); experiment: Minimum fungicidal concentration determination; assay type: cell-based; settings: F. pedrosoi
Protocol: as §2

[13] = system: Fonsecaea monophora (CFP 00911); experiment: Minimum fungicidal concentration determination; assay type: cell-based; settings: F. monophora
Protocol: as §2

[14] = system: Cladophialophora carrionii (CFP 00910); experiment: Minimum fungicidal concentration determination; assay type: cell-based; settings: C. carrionii
Protocol: The MFC was determined as the lowest drug concentration without fungal growth on Sabouraud agar after five days of incubation at 35 °C.

[15] = system: Rhinocladiela similis (CFP 00790); experiment: MIC determination (EUCAST, minor modifications); assay type: cell-based; settings: R. similis
Protocol: as §1

[16] = system: Cladophialophora carrionii (CFP 00910); experiment: MIC determination (EUCAST, minor modifications); assay type: cell-based; settings: C. carrionii
Protocol: as §1

[17] = system: Phialophora verrucosa (CFP 00937); experiment: MIC determination (EUCAST, minor modifications); assay type: cell-based; settings: P. verrucosa
Protocol: as §1

[18] = system: Exophiala dermatitidis (ATCC 28869); experiment: MIC determination (EUCAST, minor modifications); assay type: cell-based; settings: E. dermatitidis
Protocol: as §1

[19] = system: Exophiala heteromorpha (ATCC 28180); experiment: MIC determination (EUCAST, minor modifications); assay type: cell-based; settings: E. heteromorpha
Protocol: as §1

[20] = system: Fonsecaea pedrosoi (CFP 00791); experiment: MIC determination (EUCAST, minor modifications); assay type: cell-based; settings: F. pedrosoi
Protocol: as §1

[21] = system: Fonsecaea monophora (CFP 00911); experiment: MIC determination (EUCAST, minor modifications); assay type: cell-based; settings: F. monophora
Protocol: as §1

[22] = different species that cause CBM, highest concentration tested 80 µM, read-out: MIC

Medroxyprogesterone
% Growth Inhibition [1]: 91%

Cc1cccc2sc3nncn3c12 [tricyclazole]
melanin production [2]: changes the color of colonies from dark green, gray or black (due to melanin) to reddish brown | melanin production [3]: changes the color of colonies from dark green, gray or black (due to melanin) to reddish brown | melanin production [4]: changes the color of colonies from dark green, gray or black (due to melanin) to reddish brown

C[C@H](N[C@@H](CCc1ccccc1)C(=O)O)C(=O)N1CCC[C@H]1C(=O)O [Enalaprilat]
MIC ([5]; different species that cause CBM, highest concentration tested 80 µM): above 80 µM | % Growth Inhibition [1]: 67%

O=c1[nH]c(=O)n([C@H]2C[C@H](O)[C@@H](CO)O2)cc1F [Floxuridine]
MIC ([5]; CBM agents except the Fonsecaea nubica isolate, read-out: MIC): > 80 µM | inhibition at 10 µM [1]: 86% | MIC [6]: 0.3125 µM (≈ 0.0769 µg/mL)

CC(=O)NC[C@H]1CN(c2ccc(N3CCOCC3)c(F)c2)C(=O)O1 [Linezolid]
MIC [5, 22]: > 80 µM | inhibition at 10 µM [1]: 87%

COCCCOc1ccnc(C[S+]([O-])c2nc3ccccc3[nH]2)c1C (centres unmarked) [Rabeprazole]
MIC [5, 22]: > 80 µM | inhibition at 10 µM [1]: 61%

OCCN1C[C@H](O)[C@@H](O)[C@H](O)[C@H]1CO [Miglitol]
MIC [5, 22]: > 80 µM | inhibition at 10 µM [1]: 90%

O=c1[nH]cc(F)c(=O)[nH]1 [5-Fluorouracil]
inhibition at 10 µM [1]: 85%

CN[C@H]1CC[C@@H](c2ccc(Cl)c(Cl)c2)c2ccccc21 [Sertraline]
MIC [5, 22]: 10 to 40 µM

O=C(NCC1CCCCN1)c1cc(OCC(F)(F)F)ccc1OCC(F)(F)F (centres unmarked) [Flecainide Acetate]
inhibition at 10 µM [1]: 95%

Clc1ccc(COC(Cn2ccnc2)c2ccc(Cl)cc2Cl)c(Cl)c1 (centres unmarked) [Miconazole nitrate]
inhibition at 10 µM [1]: 99%

CN1CCCCC1CCN1c2ccccc2Sc2ccc([S+](C)[O-])cc21 (centres unmarked) [Mesoridazine (Serentil), Mesoridazine]
inhibition at 10 µM [1]: 86%

C=CC[C@@H]1/C=C(\C)C[C@H](C)C[C@H](OC)[C@H]2O[C@@](O)(C(=O)C(=O)N3CCCC[C@H]3C(=O)O[C@H](/C(C)=C/[C@@H]3CC[C@@H](O)[C@H](OC)C3)[C@H](C)[C@@H](O)CC1=O)[C@H](C)C[C@@H]2OC [Tacrolimus]
inhibition at 10 µM [1]: 89%

CN1C(=O)CC[C@H]1c1cccnc1 [Cotinine (nicotine), Cotinine]
MIC [5, 22]: > 80 µM | inhibition at 10 µM [1]: 71%

Clc1ccc(COC(Cn2ccnc2)c2ccc(Cl)cc2Cl)cc1 (centres unmarked) [Econazole nitrate]
inhibition at 10 µM [1]: 94%

CCC(C)n1ncn(-c2ccc(N3CCN(c4ccc(OCC5COC(Cn6cncn6)(c6ccc(Cl)cc6Cl)O5)cc4)CC3)cc2)c1=O (centres unmarked) [itraconazole]
inhibition at 10 µM [1]: 100%

Nc1nc(=O)[nH]cc1F [5-Fluorocytosine]
inhibition at 10 µM [1]: 68%

CCCCCCNC(=O)n1cc(F)c(=O)[nH]c1=O [Carmofur]
inhibition at 10 µM [1]: 100%

CN(C)CC/C=C1/c2ccccc2COc2ccc(CC(=O)O)cc21 [Olopatadine (Patanol), Olopatadine]
inhibition at 10 µM [1]: 85%

c1ccc2[nH]c(-c3cscn3)nc2c1 [Thiabendazole]
MFC:MIC Ratio [7]: 4 | MFC ([7]; read-out: MFC): 40 µM (≈ 8.05 µg/mL) | MFC:MIC Ratio [8]: 1 | fungicidal or fungistatic (MFC/MIC ratio) [8]: fungicidal (When the MFC/MIC ratio of a hit drug was 1 or 2, the substance was considered fungicidal) | MFC ([8]; Fonsecaea nubica, read-out: MFC): 5 µM (≈ 1.01 µg/mL) | MFC:MIC Ratio [9]: 4 | MFC ([9]; Phialophora verrucosa, read-out: MFC): 20 µM (≈ 4.03 µg/mL) | MFC:MIC Ratio [10]: 8 | MFC ([10]; Exophiala dermatitidis, ATCC28869, read-out: MFC): 80 µM (≈ 16.1 µg/mL) | MFC:MIC Ratio [11]: 8 | MFC ([11]; Exophiala heteromorpha, ATCC28180, read-out: MFC): 80 µM (≈ 16.1 µg/mL) | MFC:MIC Ratio [12]: 1 | fungicidal or fungistatic (MFC/MIC ratio) [12]: fungicidal (When the MFC/MIC ratio of a hit drug was 1 or 2, the substance was considered fungicidal) | MFC ([12]; Fonsecaea pedrosoi, read-out: MFC): 5 µM (≈ 1.01 µg/mL) | MFC:MIC Ratio [13]: 1 | fungicidal or fungistatic (MFC/MIC ratio) [13]: fungicidal (When the MFC/MIC ratio of a hit drug was 1 or 2, the substance was considered fungicidal) | MFC ([13]; Fonsecaea monophora, read-out: MFC): 5 µM (≈ 1.01 µg/mL) | MFC:MIC Ratio [14]: 1 | fungicidal or fungistatic (MFC/MIC ratio) [14]: fungicidal (When the MFC/MIC ratio of a hit drug was 1 or 2, the substance was considered fungicidal) | MFC ([14]; Cladophialophora carrionii, read-out: MFC): 5 µM (≈ 1.01 µg/mL) | inhibition at 10 µM [1]: 82% | MIC ([15]; 100% growth inhibition, read-out: MIC): 10 µM (≈ 2.01 µg/mL) | Selectivity Index (SI) ([15]; CC50 Vero 24 h / MIC): 49.75 | Selectivity Index (SI) ([6]; CC50 Vero 24 h / MIC): 99.50 | MIC ([6]; Fonsecaea nubica): 5 µM (≈ 1.01 µg/mL) | Selectivity Index (SI) ([16]; CC50 Vero 24 h / MIC): 99.50 | MIC ([16]; Cladophialophora carrionii, 100% growth inhibition, read-out: MIC): 5 µM (≈ 1.01 µg/mL) | Selectivity Index (SI) ([17]; CC50 Vero 24 h / MIC): 99.50 | MIC ([17]; Phialophora verrucosa, 100% growth inhibition, read-out: MIC): 5 µM (≈ 1.01 µg/mL) | Selectivity Index (SI) ([18]; CC50 Vero 24 h / MIC): 49.75 | MIC ([18]; Exophiala dermatitidis, ATCC28869, 100% growth inhibition, read-out: MIC): 10 µM (≈ 2.01 µg/mL) | Selectivity Index (SI) ([19]; CC50 Vero 24 h / MIC): 49.75 | MIC ([19]; Exophiala heteromorpha, ATCC28180, 100% growth inhibition, read-out: MIC): 10 µM (≈ 2.01 µg/mL) | Selectivity Index (SI) ([20]; CC50 Vero 24 h / MIC): 99.50 | MIC ([20]; Fonsecaea pedrosoi, 100% growth inhibition, read-out: MIC): 5 µM (≈ 1.01 µg/mL) | Selectivity Index (SI) ([21]; CC50 Vero 24 h / MIC): 99.50 | MIC ([21]; Fonsecaea monophora, 100% growth inhibition, read-out: MIC): 5 µM (≈ 1.01 µg/mL)
